Bounds are passed on as bounds.

In the assay the target is Lysine-specific histone demethylase 1A (Homo sapiens, UniProt O60341). In words: Demethylase Biochemical Assay: LANCE LSD1/KDM1A demethylase assay¿10 uL of 1 nM LSD-1 enzyme (ENZO BML-SE544-0050) in the assay buffer (50 mM Tris, pH 7.5, 0.01% Tween-20, 25 mM NaCl, 5 mM DTT) were preincubated for 1 hour at 25° C. with 0.8 uL compound/DMSO dotted in black 384 well polystyrene plates. Reactions were started by addition of 10 uL of assay buffer containing 0.4 uM Biotin-labeled Histone H3 peptide substrate: ART-K(Me1)-QTARKSTGGKAPRKQLA-GGK(Biotin) SEQ ID NO:1 (AnaSpec 64355) and incubated for 1 hour at 25° C. Reactions were stopped by addition of 10 uL 1x LANCE Detection Buffer (PerkinElmer CR97-100) supplemented with 1.5 nM Eu-anti-unmodified H3K4 Antibody (PerkinElmer TRF0404), and 225 nM LANCE Ultra Streptavidin (PerkinElmer TRF102) along with 0.9 mM Tranylcypromine-HCl (Millipore 616431). After stopping the reactions plates were incubated for 30 minutes and read on a PHERAstar FS plate reader (BMG Labtech). (In general: Time-resolved FRET reads energy transfer from a long-lived donor to a nearby acceptor.)
The IC50 is the concentration at which inhibition is half-maximal. Higher therefore signals weaker potency. Molecule `COC(=O)N(C)c1ccc(-c2c(-c3ccc(C#N)cc3)nc(N3CCC(N(C)C)CC3)c3cncn23)cn1` returned an IC50 below 50 nM.

Turning to `COC(=O)N(C)c1ccc(-c2c(-c3ccc(C#N)cc3)cc(OC[C@@H]3CCCN(C)C3)c3cncn23)cn1`, the half-inhibitory concentration (IC50) is below 50 nM.

The molecule `COC(=O)N(C)c1ccc(-c2c(-c3ccc(C#N)cc3)nc(N3CCC(N(C)C)CC3)c3cncn23)cc1F` displayed an IC50 below 50 nM.

The values above are taken from ChEMBL document CHEMBL5725310, “Substituted imidazo[1,5-α]pyridines and imidazo[1,5-α]pyrazines as LSD1 inhibitors” (2017).
